Measurements as given in BindingDB's records for doi:10.1021/ja062999h (The Scripps Research Institute, 2006).

How the values were obtained:
Conditions in all cases: pH 7.4; 22 °C
[1] = biological target: T1, Fatty-acid amide hydrolase 1 (Mus musculus, UniProt O08914); experiment: FAAH Competitive ABPP Using FP-Rhodamine
T1 sequence (O08914 whole entry): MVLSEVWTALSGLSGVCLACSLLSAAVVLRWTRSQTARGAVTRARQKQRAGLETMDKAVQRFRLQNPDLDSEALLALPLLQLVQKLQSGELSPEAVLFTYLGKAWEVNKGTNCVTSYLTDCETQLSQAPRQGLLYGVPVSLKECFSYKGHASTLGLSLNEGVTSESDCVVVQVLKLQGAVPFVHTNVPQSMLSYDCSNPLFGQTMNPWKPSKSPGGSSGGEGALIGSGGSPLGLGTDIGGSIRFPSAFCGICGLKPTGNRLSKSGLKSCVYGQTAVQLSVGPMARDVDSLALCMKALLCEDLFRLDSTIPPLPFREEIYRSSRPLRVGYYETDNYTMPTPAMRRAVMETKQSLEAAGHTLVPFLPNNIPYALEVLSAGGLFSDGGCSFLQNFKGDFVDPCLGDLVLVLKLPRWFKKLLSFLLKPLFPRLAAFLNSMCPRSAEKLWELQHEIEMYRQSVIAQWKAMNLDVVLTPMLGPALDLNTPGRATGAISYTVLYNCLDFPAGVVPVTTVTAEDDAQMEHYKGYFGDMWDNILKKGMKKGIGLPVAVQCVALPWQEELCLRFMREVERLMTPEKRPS
Protocol: Mouse brain membrane proteomes were preincubated with varying concentrations of inhibitors for 10 min prior to the addition of a rhodamine-tagged fluorophosphonate (FP-rhodamine). Reactions were quenched after 10 min, subjected to SDS-PAGE, and visualized in-gel using a flatbed fluorescence scanner. Labeled proteins were quantified by measuring integrated band intensities. Dose response curves obtained from three trials at each inhibitor concentration were fit using Prism software (GraphPad) to

[2] = biological target: T2, Monoglyceride lipase (Mus musculus, UniProt O35678); experiment: Serine Hydrolase Activity Assay
T2 sequence (O35678 whole entry): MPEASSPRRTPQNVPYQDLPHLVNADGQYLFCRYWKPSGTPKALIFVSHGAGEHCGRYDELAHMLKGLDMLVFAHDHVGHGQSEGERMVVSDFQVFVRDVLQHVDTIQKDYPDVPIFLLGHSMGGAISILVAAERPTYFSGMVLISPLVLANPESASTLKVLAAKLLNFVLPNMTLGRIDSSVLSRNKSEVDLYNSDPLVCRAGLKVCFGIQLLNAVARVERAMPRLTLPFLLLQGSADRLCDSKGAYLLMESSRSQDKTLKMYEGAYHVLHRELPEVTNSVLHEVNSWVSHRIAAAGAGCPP
Excerpt: (§1) Serine hydrolase targets were recombinantly expressed in COS-7 cells by transient transfection. IC50 values were obtained by competitive ABPP with FP-rhodamine.

[3] = biological target: T3, Monoacylglycerol lipase ABHD6 (Mus musculus, UniProt Q8R2Y0); experiment: Serine Hydrolase Activity Assay
T3 sequence (Q8R2Y0 whole entry): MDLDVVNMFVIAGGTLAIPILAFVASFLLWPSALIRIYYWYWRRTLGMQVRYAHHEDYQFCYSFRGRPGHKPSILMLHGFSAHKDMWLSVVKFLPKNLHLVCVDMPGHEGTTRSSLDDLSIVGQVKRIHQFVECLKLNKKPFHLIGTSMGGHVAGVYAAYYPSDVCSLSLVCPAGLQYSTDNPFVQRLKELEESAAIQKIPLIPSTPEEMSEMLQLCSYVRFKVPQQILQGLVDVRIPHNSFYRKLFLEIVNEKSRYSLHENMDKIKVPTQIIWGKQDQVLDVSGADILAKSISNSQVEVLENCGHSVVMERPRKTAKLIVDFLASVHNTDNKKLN
Excerpt: as §1

[4] = biological target: T4, Neutral cholesterol ester hydrolase 1 (Mus musculus, UniProt Q8BLF1); experiment: Serine Hydrolase Activity Assay
T4 sequence (Q8BLF1 whole entry): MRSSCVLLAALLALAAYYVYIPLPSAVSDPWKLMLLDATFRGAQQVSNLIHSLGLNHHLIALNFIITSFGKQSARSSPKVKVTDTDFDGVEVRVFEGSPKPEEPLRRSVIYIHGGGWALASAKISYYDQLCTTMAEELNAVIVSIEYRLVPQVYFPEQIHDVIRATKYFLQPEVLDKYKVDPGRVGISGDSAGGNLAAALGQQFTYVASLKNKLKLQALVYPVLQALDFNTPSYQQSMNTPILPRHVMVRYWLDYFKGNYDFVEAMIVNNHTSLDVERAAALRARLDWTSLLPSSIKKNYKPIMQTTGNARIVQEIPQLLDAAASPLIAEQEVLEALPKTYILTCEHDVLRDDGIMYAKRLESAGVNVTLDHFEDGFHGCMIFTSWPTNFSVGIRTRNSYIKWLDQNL
Excerpt: as §1

IC50 [1]: 13 nM
IC50 [2]: 5.3 nM
IC50 [3]: 0.09 nM
IC50 [4]: 8.2 nM
Structure (SMILES): CN(C)C(=O)n1nnnc1Cc1ccc(-c2ccccc2)cc1 [N,N-dimethyl-5-[(4-phenylphenyl)methyl]-1H-1,2,3,4-tetrazole-1-carboxamide]
